According to US4129577A (priority 1977, dated 1978):

Columns and labels:
[1] = test system: mice; conditions: mouse, in vivo, ip
[2] = test system: pigeons; conditions: in vivo
[3] = test system: pigeons; conditions: in vivo, po
[4] = test system: KB cell; format: cell-based, human; conditions: for Activity in μg/ml (ED50 = concentration causing 50% inhibition of growth): kb cells

For `CC(=O)OCC12CC(OC(=O)CC(C)C)C(C)=CC1OC1C(OC(C)=O)C(OC(C)=O)C2(C)C12CO2` (stereo not shown) [AT-2], which “toxicity relative to T-2 toxin” value [1] is on record?
Its value is “less than 1/2”.

And the vomiting [2]?
Its vomiting is “virtually completely eliminated”.

What about the “toxicity relative to T-2 toxin” value [3] of the same compound?
Its value is “less than 1/6”.

What about the “times more active than T-2 toxin” value [4] of the same compound?
Its value is “about 5,000 times”.

What about the “Activity in μg/ml (ED50 = concentration causing 50% inhibition of growth)” value [4] of the same compound?
The value was 10^-8 μg/ml.

For `CC(=O)OCC12CC(OC(=O)CC(C)C)C(C)=CC1OC1C(OC(=O)c3ccccc3)C(OC(C)=O)C2(C)C12CO2` (stereo not shown) [BzT-2], which “Activity in μg/ml (ED50 = concentration causing 50% inhibition of growth)” value [4] is on record?
Its value is 10 µg/mL.

With `CCC(=O)OC1C2OC3C=C(C)C(OC(=O)CC(C)C)CC3(COC(C)=O)C(C)(C1OC(C)=O)C21CO1` (stereo not shown) [PT-2] as the compound, how does the “Activity in μg/ml (ED50 = concentration causing 50% inhibition of growth)” value [4] read?
Its value is 10^-8 μg/ml.
